According to the supplement of paper PMC10307832:

Legend:
Test in all cases: relative viability (nuclei count vs DMSO), 5 days (fraction); higher = more cells survive
[1] = compound: C1CSC2=C(C(=O)N1)SC3=C2C=C(C=C3)O [kb NB 142-70] + Nc1nc2[nH]cc(CCc3ccc(C(=O)N[C@@H](CCC(=O)O)C(=O)O)cc3)c2c(=O)[nH]1 [Pemetrexed] (partner 0.2 µM)
Outline: (§1)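 Nuclei were stained with Hoechst during a one-step fixation (final 0.05% Triton X-100, 1% formaldehyde, 1 ug/ml Hoechst) carried out 5 days after dosing, then counted on 4× images. The cells, lung cancer lines in 1536-well plates, had been dosed by pin tool the day after seeding with one drug alone or a fixed anchor-drug dose plus five library-drug doses (not always all listed) in √10 steps. Relative viability is the nuclei count in treated wells divided by that in vehicle wells, and each value is the median of duplicate plates.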

[2] = compound: NCC(=O)Nc1ccc(-n2nc(C(F)(F)F)cc2-c2ccc3c(ccc4ccccc43)c2)cc1 + CC(C)C[C@H](NC(=O)[C@H](Cc1ccccc1)NC(=O)c1cnccn1)B(O)O [Bortezomib] (partner 0.002 µM)
Outline: as §1

kb NB 142-70 + Alpelisib = compound: C1CSC2=C(C(=O)N1)SC3=C2C=C(C=C3)O [kb NB 142-70] + Cc1nc(NC(=O)N2CCC[C@H]2C(N)=O)sc1-c1ccnc(C(C)(C)C(F)(F)F)c1 [Alpelisib] (partner 2 µM)
Outline: as §1

kb NB 142-70 + Olaparib = compound: C1CSC2=C(C(=O)N1)SC3=C2C=C(C=C3)O [kb NB 142-70] + O=C(c1cc(Cc2n[nH]c(=O)c3ccccc23)ccc1F)N1CCN(C(=O)C2CC2)CC1 [Olaparib] (partner 8 µM)
Outline: as §1

[3] = compound: NCC(=O)Nc1ccc(-n2nc(C(F)(F)F)cc2-c2ccc3c(ccc4ccccc43)c2)cc1 + C[C@]1(O)C[C@@H](c2nc(-c3ccc4ccc(-c5ccccc5)nc4c3)c3c(N)nccn32)C1 [Linsitinib] (partner 1 µM)
Outline: as §1

Cell Line	relative viability ([1]; first compound 0.1 µM)	relative viability ([1]; first compound 1 µM)	relative viability ([1]; first compound 3.162 µM)	relative viability ([2]; first compound 0.02 µM)	relative viability ([2]; first compound 0.06325 µM)	relative viability ([2]; first compound 0.2 µM)	relative viability ([2]; first compound 0.6325 µM)	relative viability ([2]; first compound 2 µM)	relative viability (kb NB 142-70 + Alpelisib; first compound 0.1 µM)	relative viability (kb NB 142-70 + Alpelisib; first compound 1 µM)	relative viability (kb NB 142-70 + Alpelisib; first compound 3.162 µM)	relative viability (kb NB 142-70 + Olaparib; first compound 0.1 µM)	relative viability (kb NB 142-70 + Olaparib; first compound 1 µM)	relative viability (kb NB 142-70 + Olaparib; first compound 3.162 µM)	relative viability ([3]; first compound 0.02 µM)	relative viability ([3]; first compound 0.06325 µM)	relative viability ([3]; first compound 0.2 µM)	relative viability ([3]; first compound 0.6325 µM)	relative viability ([3]; first compound 2 µM)
HCC-44	0.554	0.731	0.69	0.968	0.872	0.946	0.875	0.87	0.772	0.875	0.735	0.945	0.981	0.974	0.648	0.688	0.697	0.632	0.652
HCC-827	0.25	0.243	0.267	1.02	1.12	1.04	1	1.15	0.868	0.928	0.851	0.655	0.62	0.404	0.93	0.972	1	0.956	0.958
NCI-H2347	0.453	0.449	0.426	0.956	1.18	1.02	1.12	0.945	0.963	1.09	1.01	0.634	0.632	0.568	0.953	0.98	1.04	1.07	1.01
PC-14	0.134	0.148	0.139	0.966	0.822	1.06	0.895	0.858	0.902	0.969	0.99	0.318	0.265	0.216	1.07	0.917	1.05	0.936	0.993
NCI-H1651	0.598	0.578	0.552	0.961	0.919	0.977	0.909	0.985	0.938	0.934	0.364	0.181	0.181	0.187	0.945	1.05	0.963	1.01	1.01
HARA	0.251	0.293	0.225	1.09	1.05	1.22	1.12	1.25	0.786	0.726	0.516	0.873	0.602	0.547	0.935	1.01	1.18	0.965	0.935
LU99A	0.175	0.196	0.187	1.14	1.27	1.06	1.07	1.1	0.517	0.499	0.354	0.274	0.291	0.251	0.556	0.571	0.555	0.618	0.532
NCI-H1355	0.943	1.06	1.04	1.22	1.28	1.15	1.19	1.29	0.924	0.86	0.822	0.818	0.744	0.775	0.769	0.855	0.849	0.867	0.82
HCC-78	0.896	0.907	0.899	0.53	0.568	0.496	0.571	0.505	0.363	0.348	0.335	0.791	0.773	0.83	0.572	0.563	0.498	0.49	0.541
HCC-15	0.227	0.238	0.227	1.07	1.06	1.06	1.01	0.996	0.908	0.787	0.626	0.722	0.748	0.752	0.865	0.871	0.897	0.891	0.944
EKVX	0.35	0.399	0.378	1.05	1.09	1.16	1.02	0.984	0.854	0.849	0.96	0.853	0.88	0.984	1.04	1.06	0.987	1.01	1.11
NCI-H2087	0.569	0.681	0.527	0.818	0.743	0.621	0.649	0.896	1.16	1.22	0.858	0.506	0.589	0.411	0.867	1.02	1.03	1.1	0.988
NCI-H1437	0.297	0.359	0.349	0.531	0.422	0.536	0.487	0.499	1.01	0.999	0.875	0.625	0.663	0.57	0.944	1.05	1.07	1.1	1.02
COR-L23	0.183	0.201	0.196	1.05	0.944	0.962	0.978	0.737	0.757	0.808	0.282	0.344	0.442	0.263	0.989	0.927	1.05	0.896	0.95
NCI-H838	0.257	0.248	0.245	0.81	0.788	1.06	0.746	0.727	1.02	1.06	0.91	0.73	0.787	0.739	1.03	1.01	1.1	0.925	0.881
A-427	0.886	1.01	0.873	0.949	0.919	0.948	0.972	0.984	1.01	1.23	1.11	0.747	0.77	0.52	1.12	1.17	1.16	1.02	1.03
